Earlier results on four compounds are cited in patent US20210000972A1, “NANOPARTICLES FOR SUSTAINED OPHTHALMIC DRUG DELIVERY AND METHODS OF USE” (2C TECH CORP., priority 2017, published 2021).

Like-named read-outs stand apart in the source and are kept apart here.

Consider `C[C@@H]1C[C@H]2[C@@H]3CCC4=CC(=O)C=C[C@]4(C)[C@@]3(F)[C@@H](O)C[C@]2(C)[C@@]1(O)C(=O)CO` [dexamethasone], for which the “duration of constant concentration” value (sustained release form (embedded in a lactic co-glycolic copolymer)) is on record as “one”.

A word on the half-life: it is the time in which the quantity being followed falls by half. With `O=C(O)P(=O)(O)O` [foscarnet], the half-life (intravitreal) is 12 h.

With `CC1(C)O[C@@H]2C[C@H]3[C@@H]4CCC5=CC(=O)C=C[C@]5(C)[C@@]4(F)[C@@H](O)C[C@]3(C)[C@]2(C(=O)CO)O1` [triamcinolone acetonide], for the setting “intravitreal suspension, 4 mg”, the half-life was 576 h. The “time the drug lasted” value (intravitreal suspension, the two doses administered (4 mg and 16 mg)) is 4 to 6 months. Turning to “Avastin: an antibody used for the treatment of macular edema”, for the setting “intravitreal antibody”, the half-life is 140 h and the time detectable is over 30 days. Moreover, where the note is “untreated contralateral eye”, the “systemic delivery after intravitreal administration” value is on record as “found in the untreated contralateral eye”.
